Test results from patent US20240415918A1, “Polypeptide and its use as a CCK receptor agonist/antagonist” (Centre for Regenerative Medicine & Health, Hong Kong …, priority 2021, published 2024).
*1 amine or outer side, *2 acyl side, *3 side chain or, on linkers, in order; H or OH if unused. Where a SMILES comes first, the peptide text is derived from it. [ ]: non-standard residue; d: D form. X1 = O=C([C@@]1(O)C[C@@H](O)[C@H](N[*:1])C([C@@H](O)[C@@H](O)CO)O1)[*:2]; NMeW = CN[C@@H](Cc1c[nH]c2ccccc12)C(=O)O; Phe(3-Br) = N[C@@H](Cc1cccc(Br)c1)C(=O)O; Aad = N[C@@H](CCCC(=O)O)C(=O)O; Nle = CCCC[C@H](N)C(=O)O

Target: T1, CCK-B receptors (CHO-CCK) (Homo sapiens, UniProt P32239)
T1 construct: expressed in transfected cells; host or cells: CHO (CHO-CCK model cells)
T1 sequence (P32239 1-447): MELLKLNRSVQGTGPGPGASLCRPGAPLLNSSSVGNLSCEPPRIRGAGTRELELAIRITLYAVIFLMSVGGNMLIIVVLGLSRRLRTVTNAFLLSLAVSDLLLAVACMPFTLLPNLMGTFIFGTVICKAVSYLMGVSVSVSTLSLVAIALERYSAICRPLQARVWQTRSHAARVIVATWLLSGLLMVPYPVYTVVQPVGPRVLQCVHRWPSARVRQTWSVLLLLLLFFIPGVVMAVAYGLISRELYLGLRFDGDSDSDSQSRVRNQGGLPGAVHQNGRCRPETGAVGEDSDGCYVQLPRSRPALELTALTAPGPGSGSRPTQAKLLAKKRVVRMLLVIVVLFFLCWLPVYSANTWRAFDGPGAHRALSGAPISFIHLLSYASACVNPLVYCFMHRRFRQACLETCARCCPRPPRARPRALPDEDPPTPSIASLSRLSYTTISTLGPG
Assay: Calcium flux (Fluo-8) agonist test on CHO-CCK model cells
Assay type: cell-based
Settings: for % Act-Ave @ 1 nM: compound at 1 nM; for % Act-Ave @ 1 nM / % Act-Ave @ 50 nM / EC50: CHO-CCK cells; for % Act-Ave @ 50 nM: compound at 50 nM; for Agonistic Activity (%) at 10 μM: compound at 10 μM, percentage of signal of 20 nM CCK8 alone; for EC50: Fluo-8 calcium flux
Description: • To detect changes in intracellular calcium ion concentration after the compound acts on model cells containing CCK-B receptors (CHO-CCK).
• 1. The compound was formulated to a 10 mM mother liquor with DMSO, and then diluted into a series of 9 concentrations with a 3-fold gradient to form a 1000× stock solution.
2.1 Agonist • The compound stock solution was subjected to 200-fold dilution with HHBS buffer to form a 5× working solution.
• 1. Plate CHO-CCK cells in a 96-well plate with media containing 1% FBS, 30,000 cells/well/100 μL, and incubate overnight at 37° C. • 2. Prepare 1×Fluo-8 analysis buffer: mix 9 mL of HHBS, 1 mL of 10× Pluronic F127 Plus and 20 μL of Fluo-8 thoroughly for later use. • 3. Add Fluo-8 dye working solution to the cell plate, 100 μL/well. First incubate in a 37° C. incubator for 30 min, and then take it out and incubate at room temperature in the dark for 30 min. • 4. In the process of incubating cells, the compounds to be detected were prepared with HHBS. • 5.
The agonism/antagonism EC50 of the compound can be obtained by plotting the fitting curve with the agonism/antagonism percentage as Y-axis and the concentration of the compound as X-axis.

Row | Structure (SMILES) | Agonistic Activity (%) at 10 μM | further results
1 | CCCC[C@H](NC(=O)[C@H](Cc1c[nH]c2ccccc12)N(C)C(C)=O)C(=O)N[C@@H](CC(=O)O)C(=O)N[C@@H](Cc1cccc(Br)c1)C(N)=O [HT-273, Ac-(N-Me-Trp)-Nle-Asp-Phe(3-Br)-NH2] (Ac-[NMeW][Nle]D[Phe(3-Br)]-NH2) | – | % Act-Ave @ 1 nM: 52.14%; % Act-Ave @ 50 nM: 96.54%
2 | COC(=O)C[C@H](NC(=O)[C@H](CC[S+](C)[O-])NC(=O)[C@H](N)Cc1c[nH]c2ccccc12)C(=O)N[C@@H](Cc1ccc(Cl)cc1)C(N)=O (stereo partly drawn) [HT-120, D-Trp-Met(O)-Asp(Ome)-Phe(4-Cl)-NH2] | −1.00% | –
3 | C[C@@H](NC(=O)[C@H](Cc1cccc(Br)c1)NC(=O)[C@H](CC(=O)O)NC(=O)[C@H](CCCCN)NC(=O)[C@H](N)Cc1c[nH]c2ccccc12)C(N)=O [HT-288, D-Trp-Lys-Asp-Phe(3-Br)-D-Ala-NH2] (H-[dW]KD[Phe(3-Br)][dA]-NH2) | – | EC50 (bound in μM): > 10 µM
4 | COC(=O)C[C@H](NC(=O)[C@H](CC[S+](C)[O-])NC(=O)[C@H](N)Cc1c[nH]c2ccccc12)C(=O)N[C@@H](Cc1ccccc1[N+](=O)[O-])C(N)=O (stereo partly drawn) [HT-109, D-Trp-Met(O)-Asp(Ome)-Phe(2-NO2)-NH2] | 3.33% | –
5 | COC(=O)C[C@H](NC(=O)[C@H](CCS(C)(=O)=O)NC(=O)[C@H](N)Cc1c[nH]c2ccccc12)C(=O)N[C@@H](Cc1ccc(Cl)cc1)C(N)=O [HT-137, D-Trp-Met(O2)-Asp(Ome)-Phe(4-Cl)-NH2] | 2.10% | –
6 | C[S+]([O-])CC[C@H](NC(=O)[C@H](N)Cc1c[nH]c2ccccc12)C(=O)N[C@@H](CC(=O)O)C(=O)N[C@@H](Cc1ccc([N+](=O)[O-])cc1)C(N)=O (stereo partly drawn) [HT-50, D-Trp-Met(O)-Asp-Phe(4-NO2)-NH2] | 11.85% | –
7 | CSCC[C@H](NC(=O)[C@H](N)Cc1c[nH]c2ccccc12)C(=O)N[C@@H](CC(=O)OCCNc1cccc2c(O)cccc12)C(=O)N[C@@H](Cc1ccc(Cl)cc1)C(N)=O [HT-103, D-Trp-Met-Asp(EDANS)-Phe(4-Cl)-NH2] | 1.03% | –
8 | COC(=O)C[C@H](NC(=O)[C@H](CC[S+](C)[O-])NC(=O)[C@H](N)Cc1c[nH]c2ccccc12)C(=O)N[C@@H](Cc1ccc([N+](=O)[O-])cc1)C(N)=O (stereo partly drawn) [HT-118, D-Trp-Met(O)-Asp(Ome)-Phe(4-NO2)-NH2] | 0.13% | –
9 | Cc1ccc(C[C@H](NC(=O)[C@H](CC(=O)O)NC(=O)[C@H](CC[S+](C)[O-])NC(=O)[C@H](N)Cc2c[nH]c3ccccc23)C(N)=O)cc1 (stereo partly drawn) [HT-47, D-Trp-Met(O)-Asp-Phe(4-Me)-NH2] | 26.99% | –
10 | Cc1ccc(C[C@H](NC(=O)[C@H](CC(=O)OCCNc2cccc3c(O)cccc23)NC(=O)[C@H](CCS(C)(=O)=O)NC(=O)[C@H](N)Cc2c[nH]c3ccccc23)C(N)=O)cc1 [HT-166, D-Trp-Met(O2)-Asp(EDANS)-Phe(4-Me)-NH2] | 3.59% | –
11 | CCCC[C@H](NC(=O)[C@H](Cc1c[nH]c2ccccc12)N(C)C(C)=O)C(=O)N[C@@H](CCCC(=O)O)C(=O)N[C@@H](Cc1cccc(Br)c1)C(N)=O [HT-271, Ac-Trp-Nle-Aa-Phe(3-Br)-NH2] (Ac-[NMeW][Nle][Aad][Phe(3-Br)]-NH2) | – | % Act-Ave @ 1 nM: 40.66%; % Act-Ave @ 50 nM: 104.56%
12 | C[S+]([O-])CC[C@H](NC(=O)[C@H](N)Cc1c[nH]c2ccccc12)C(=O)N[C@@H](CC(=O)OCCNc1cccc2c(O)cccc12)C(=O)N[C@@H](Cc1cc(F)c(F)c(F)c1)C(N)=O (stereo partly drawn) [HT-159, D-Trp-Met(O)-Asp(EDANS)-Phe(3,4,5-TriF)-NH2] | 4.93% | –
13 | COC(=O)C[C@H](NC(=O)[C@H](CCS(C)(=O)=O)NC(=O)[C@H](N)Cc1c[nH]c2ccccc12)C(=O)N[C@@H](Cc1cccc(F)c1)C(N)=O [HT-129, D-Trp-Met(O2)-Asp(Ome)-Phe(3-F)-NH2] | −4.28% | –
14 | COC(=O)C[C@H](NC(=O)[C@H](CC[S+](C)[O-])NC(=O)[C@H](N)Cc1c[nH]c2ccccc12)C(=O)N[C@@H](Cc1ccc(C)cc1)C(N)=O (stereo partly drawn) [HT-115, D-Trp-Met(O)-Asp(Ome)-Phe(4-Me)-NH2] | 9.82% | –
15 | COC(=O)C[C@H](NC(=O)[C@H](CCS(C)(=O)=O)NC(=O)[C@H](N)Cc1c[nH]c2ccccc12)C(=O)N[C@@H](Cc1ccc(C)cc1)C(N)=O [HT-132, D-Trp-Met(O2)-Asp(Ome)-Phe(4-Me)-NH2] | −14.42% | –
16 | CCCC[C@H](NC(=O)[C@H](Cc1c[nH]c2ccccc12)N(C)C(=O)[C@@]1(O)C[C@@H](O)[C@H](NC(C)=O)C([C@@H](O)[C@@H](O)CO)O1)C(=O)N[C@@H](CC(=O)O)C(=O)N[C@@H](Cc1cccc(Br)c1)C(N)=O (stereo partly drawn) [HT-278, Sia-(N-Me-Trp)-Nle-Asp-Phe(3-Br)-NH2] (Ac-[X1][NMeW][Nle]D[Phe(3-Br)]-NH2) | – | % Act-Ave @ 1 nM: 40.85%; % Act-Ave @ 50 nM: 93.12%
17 | C[S+]([O-])CC[C@H](NC(=O)[C@H](N)Cc1c[nH]c2ccccc12)C(=O)N[C@@H](CC(=O)O)C(=O)N[C@@H](Cc1ccc(Cl)cc1)C(N)=O (stereo partly drawn) [HT-52, D-Trp-Met(O)-Asp-Phe(4-Cl)-NH2] | 15.71% | –
18 | CC(C)C[C@H](NC(=O)[C@H](N)Cc1c[nH]c2ccccc12)C(=O)N[C@@H](CC(=O)O)C(=O)N[C@@H](Cc1cccc(Br)c1)C(=O)N[C@H](C)C(N)=O [HT-289, D-Trp-Val-Asp-Phe(3-Br)-D-Ala-NH2] | – | EC50 (100% control = 20 nM CCK8): 3.19 µM
19 | COC(=O)C[C@H](NC(=O)[C@H](CCSC)NC(=O)[C@H](N)Cc1c[nH]c2ccccc12)C(=O)N[C@@H](Cc1ccc(C)cc1)C(N)=O [HT-81, D-Trp-Met-Asp(Ome)-Phe(4-Me)-NH2] | 12.27% | –
20 | C[S+]([O-])CC[C@H](NC(=O)[C@H](N)Cc1c[nH]c2ccccc12)C(=O)N[C@@H](CC(=O)O)C(=O)N[C@@H](Cc1ccc(C#N)cc1)C(N)=O (stereo partly drawn) [HT-49, D-Trp-Met(O)-Asp-Phe(4-CN)-NH2] | 1.03% | –
21 | CCCC[C@H](NC(=O)[C@H](Cc1c[nH]c2ccccc12)N(C)C(=O)[C@@]1(O)C[C@@H](O)[C@H](NC(C)=O)C([C@@H](O)[C@@H](O)CO)O1)C(=O)N[C@@H](CCCC(=O)O)C(=O)N[C@@H](Cc1cccc(Br)c1)C(N)=O (some centres unmarked) [HT-275, Trp)-Nle-Aa-Phe(3-Br)-NH2] (Ac-[X1][NMeW][Nle][Aad][Phe(3-Br)]-NH2) | – | % Act-Ave @ 1 nM: 62.28%; % Act-Ave @ 50 nM: 100.24%
22 | CCCC[C@H](NC(=O)[C@H](Cc1c[nH]c2ccccc12)N(C)C(C)=O)C(=O)N[C@@H](CCCC(=O)O)C(=O)N[C@@H](Cc1cccc(Br)c1)C(N)=O [HT-272, Ac-(N-Me-Trp)-Nle-Aa-Phe(3-Br)-NH2] (Ac-[NMeW][Nle][Aad][Phe(3-Br)]-NH2) | – | % Act-Ave @ 1 nM: −0.33%; % Act-Ave @ 50 nM: 86.09%
23 | COC(=O)C[C@H](NC(=O)[C@H](CCSC)NC(=O)[C@H](N)Cc1c[nH]c2ccccc12)C(=O)N[C@@H](Cc1ccc(Cl)cc1)C(N)=O [HT-86, D-Trp-Met-Asp(Ome)-Phe(4-Cl)-NH2] | −0.94% | –
24 | COC(=O)C[C@H](NC(=O)[C@H](CC[S+](C)[O-])NC(=O)[C@H](N)Cc1c[nH]c2ccccc12)C(=O)N[C@@H](Cc1ccc(I)cc1)C(N)=O (stereo partly drawn) [HT-122, D-Trp-Met(O)-Asp(Ome)-Phe(4-I)-NH2] | 5.16% | –
25 | C[S+]([O-])CC[C@H](NC(=O)[C@H](N)Cc1c[nH]c2ccccc12)C(=O)N[C@@H](CC(=O)O)C(=O)N[C@@H](Cc1ccccc1)C(N)=O (stereo partly drawn) [HT-16, D-Trp-Met(O)-Asp-Phe-NH2] | 19.11% | –
26 | COC(=O)C[C@H](NC(=O)[C@H](CC[S+](C)[O-])NC(=O)[C@H](N)Cc1c[nH]c2ccccc12)C(=O)N[C@@H](Cc1ccc(Br)cc1)C(N)=O (stereo partly drawn) [HT-119, D-Trp-Met(O)-Asp(Ome)-Phe(4-Br)-NH2] | 6.93% | –
27 | COC(=O)C[C@H](NC(=O)[C@H](CC[S+](C)[O-])NC(=O)[C@H](N)Cc1c[nH]c2ccccc12)C(=O)N[C@@H](Cc1cc(F)c(F)c(F)c1)C(N)=O (stereo partly drawn) [HT-125, D-Trp-Met(O)-Asp(Ome)-Phe(3,4,5-TriF)-NH2] | −4.16% | –
